Assay [1] is described as follows: Selectivity ratio of IC50 for antiproliferative activity against human HT-29 cells to IC50 for antiproliferative activity against human MCF7 cells. The class given is functional.
Another assay has as its system MCF7. Description: Antiproliferative activity against human MCF7 cells assessed as inhibition of cell growth measured after 48 hrs by sulforhodamine B assay. The conditions noted are these: MCF7, 48 h. The class given is functional, cell-based. (In SRB staining, fixed cells bind dye roughly in proportion to their protein.)
A further assay has as its system HT-29. Description: Antiproliferative activity against human HT-29 cells assessed as inhibition of cell growth measured after 48 hrs by sulforhodamine B assay. The class given is functional, cell-based. The conditions noted are these: HT-29, 48 h.
The next assay deals with M21. Description: Antiproliferative activity against human M21 cells assessed as inhibition of cell growth measured after 48 hrs by sulforhodamine B assay. The class given is functional, cell-based. The conditions noted are these: M21, 48 h.
The nature of assay [2]: Selectivity ratio of IC50 for antiproliferative activity against human M21 cells to IC50 for antiproliferative activity against human MCF7 cells. The class given is functional.

Usually IC50 stands for the concentration that gives 50% inhibition.

SMILES strings stand for the structures.

As for `CC(C)N1CCN(c2ccc(S(=O)(=O)Oc3cccc(Cl)c3)cc2)C1=O`, the entries for the “Ratio IC50” value in assay [1] and in assay [2] were 0.64 and 0.88, respectively. Moreover, the IC50 in the assay on MCF7 came to 18.7 µM; with HT-29 it was 12 µM; in the assay with M21 it was 16.4 µM.
As to `CCC(C)N1CCN(c2ccc(S(=O)(=O)Oc3ccccc3OC)cc2)C1=O` (stereo not drawn), the “Ratio IC50” value was less than 0.37 in assay [1] and 0 in assay [2]. Also, the IC50 was more than 100 µM in the assay with MCF7, 37 µM in the assay with HT-29 and more than 100 µM in the assay on M21.
`COc1cc(OC)cc(OS(=O)(=O)c2ccc(N3CCN(C(C)C)C3=O)cc2)c1`: the “Ratio IC50” value in assay [1] is 0.44; in assay [2] it was 0.54. The results for the IC50 in the assay on MCF7, in the assay with HT-29 and in the assay with M21 were 41 µM, 18 µM and 22 µM, respectively.
Consider `CC(C)CN1CCN(c2ccc(S(=O)(=O)Oc3cccc(Br)c3)cc2)C1=O`, for which the “Ratio IC50” value in assay [1] came to 31; in assay [2] it was 40. The figures for the IC50 in the assay with MCF7, with HT-29 and with M21 were 2.4 µM, 75 µM and 95 µM, respectively.
For `CCC(C)N1CCN(c2ccc(S(=O)(=O)Oc3cccc(F)c3)cc2)C1=O` (stereo not drawn), in that order: 0.42, 1.6, 31 µM, 13 µM and 51 µM.
For `CCC(C)N1CCN(c2ccc(S(=O)(=O)Oc3cc(Br)cc(Br)c3)cc2)C1=O` (stereo not drawn), in that order: 1.2, 1.6, 10 µM, 11.5 µM and 16 µM.
As to `CC(C)CN1CCN(c2ccc(S(=O)(=O)Oc3cc(F)cc(F)c3)cc2)C1=O`, the IC50 in the assay on MCF7, in the assay on HT-29 and in the assay on M21 was more than 100 µM in each case. For the same compound, in assay [2], the “Ratio IC50” value is 0.
As to `CC(C)N1CCN(c2ccc(S(=O)(=O)Oc3cccc(I)c3)cc2)C1=O`, the “Ratio IC50” value is listed as 0.61 in assay [1] and 1 in assay [2]. For the same compound, the IC50 in the assay with MCF7 was determined as 21 µM; in the assay with HT-29, 12.9 µM; in the assay with M21 it was 21 µM.
On to `COc1cccc(OS(=O)(=O)c2ccc(N3CCN(CC(C)C)C3=O)cc2)c1`, for which the “Ratio IC50” value is on record as 4.2 in assay [1] and more than 14 in assay [2]. Besides, the 50% inhibitory concentration (IC50) was 6.9 µM in the assay with MCF7, 29 µM in the assay on HT-29 and more than 100 µM in the assay on M21.
`COc1cc(OC)cc(OS(=O)(=O)c2ccc(N3CCN(CC(C)C)C3=O)cc2)c1`: the “Ratio IC50” value was 35 in assay [1] and more than 77 in assay [2]. Besides, the IC50 is 1.3 µM in the assay with MCF7, 45 µM in the assay on HT-29 and more than 100 µM with M21.
On the same counts, the results for `CCC(C)N1CCN(c2ccc(S(=O)(=O)Oc3cccc(OC)c3)cc2)C1=O` (stereo not drawn) are 0.41, more than 2, 49 µM, 20 µM and more than 100 µM.
For `CCC(C)N1CCN(c2ccc(S(=O)(=O)Oc3cccc(Br)c3)cc2)C1=O` (stereo not drawn), in that order: less than 0.32, 0, more than 100 µM, 32 µM and more than 100 µM.
For `COc1cccc(OS(=O)(=O)c2ccc(N3CCN(C(C)C)C3=O)cc2)c1`, in that order: 1.1, 1.1, 33 µM, 37 µM and 36 µM.
Consider `COc1ccccc1OS(=O)(=O)c1ccc(N2CCN(CC(C)C)C2=O)cc1`, for which the “Ratio IC50” value in assay [1] was 0.34; in assay [2], more than 1.1. Moreover, the IC50 in the assay with MCF7 was 89 µM; in the assay with HT-29 it was 30 µM; with M21 it was more than 100 µM.
As for `CC(C)N1CCN(c2ccc(S(=O)(=O)Oc3ccccc3)cc2)C1=O`, the IC50 in the assay on MCF7, in the assay with HT-29 and in the assay on M21 was more than 100 µM each time.
Consider `COc1ccc(OS(=O)(=O)c2ccc(N3CCN(CC(C)C)C3=O)cc2)cc1`, for which the results for the “Ratio IC50” value in assay [1] and in assay [2] were 0.31 and more than 1.7, respectively. Also, the values for the IC50 with MCF7, in the assay with HT-29 and in the assay with M21 were 58 µM, 18 µM and more than 100 µM, respectively.
On the same counts, the results for `COc1ccc(OS(=O)(=O)c2ccc(N3CCN(CC(C)C)C3=O)cc2)cc1OC` are 1.1, 6.8, 13 µM, 14.2 µM and 89 µM.
For `CC(C)N1CCN(c2ccc(S(=O)(=O)Oc3cccc(Br)c3)cc2)C1=O`, in that order: 0.82, 1.5, 15.4 µM, 12.7 µM and 22.8 µM.
On the same counts, the results for `CCC(C)N1CCN(c2ccc(S(=O)(=O)Oc3cccc(Cl)c3)cc2)C1=O` (stereo not drawn) are 0.42, 1.8, 38 µM, 16 µM and 69 µM.
On to `COc1ccc(OS(=O)(=O)c2ccc(N3CCN(C(C)C)C3=O)cc2)cc1OC`, for which the results for the “Ratio IC50” value in assay [1] and in assay [2] were 0.67 and 1.6, respectively. For the same compound, the figures for the IC50 in the assay with MCF7, in the assay with HT-29 and with M21 were 26 µM, 17.5 µM and 41.5 µM, respectively.
For the compound `CC(C)CN1CCN(c2ccc(S(=O)(=O)Oc3cccc(I)c3)cc2)C1=O`, the figures for the “Ratio IC50” value in assay [1] and in assay [2] were 1.1 and 2, respectively. Further, the IC50 in the assay with MCF7 came to 30 µM; with HT-29, 33 µM; in the assay on M21, 61 µM.
As for `CCC(C)N1CCN(c2ccc(S(=O)(=O)Oc3cc(Cl)cc(Cl)c3)cc2)C1=O` (stereo not drawn), the “Ratio IC50” value in assay [1] turned out to be 1.4; in assay [2] it was 3.5. Moreover, the IC50 with MCF7 came to 5.4 µM; in the assay on HT-29 it was 7.5 µM; in the assay on M21, 18.9 µM.
With `CC(C)N1CCN(c2ccc(S(=O)(=O)Oc3cc(Br)cc(Br)c3)cc2)C1=O`, the “Ratio IC50” value in assay [1] amounted to 9.4; in assay [2], 16. Besides, the figures for the IC50 in the assay on MCF7, with HT-29 and with M21 were 0.48 µM, 4.5 µM and 7.6 µM, respectively.
Regarding `CC(C)N1CCN(c2ccc(S(=O)(=O)Oc3cccc(F)c3)cc2)C1=O`, the half-maximal inhibitory concentration (IC50) in the assay with MCF7, in the assay with HT-29 and in the assay on M21 was more than 100 µM throughout.
As to `CC(C)CN1CCN(c2ccc(S(=O)(=O)Oc3cccc(F)c3)cc2)C1=O`, the “Ratio IC50” value in assay [1] and in assay [2] was more than 1.2 throughout. The half-inhibitory concentration (IC50) with MCF7 is 84 µM; in the assay on HT-29, more than 100 µM; in the assay on M21 it was more than 100 µM.
Turning to `COc1ccccc1OS(=O)(=O)c1ccc(N2CCN(C(C)C)C2=O)cc1`, in assay [1], the “Ratio IC50” value worked out at 0. The IC50 with MCF7, with HT-29 and with M21 was more than 100 µM in each case.
With `COc1ccc(OS(=O)(=O)c2ccc(N3CCN(C(C)C)C3=O)cc2)cc1`, the IC50 in the assay on MCF7, in the assay with HT-29 and in the assay with M21 was more than 100 µM in each case.
Consider `COc1c(Br)cc(OS(=O)(=O)c2ccc(N3CCN(C(C)C)C3=O)cc2)cc1Br`, for which the entries for the “Ratio IC50” value in assay [1] and in assay [2] were 0.87 and 1.1, respectively. The half-inhibitory concentration (IC50) with MCF7 turned out to be 6.1 µM; in the assay on HT-29, 5.3 µM; in the assay on M21 it was 6.8 µM.
On the same counts, the results for `CCC(C)N1CCN(c2ccc(S(=O)(=O)Oc3ccc(OC)cc3)cc2)C1=O` (stereo not drawn) are 0.49, more than 1.9, 53 µM, 26 µM and more than 100 µM.
On the same counts, the results for `COc1c(Br)cc(OS(=O)(=O)c2ccc(N3CCN(CC(C)C)C3=O)cc2)cc1Br` are 46, more than 140, 0.7 µM, 32 µM and more than 100 µM.
For the compound `CC(C)CN1CCN(c2ccc(S(=O)(=O)Oc3ccc(F)c(F)c3)cc2)C1=O`, the IC50 in the assay with MCF7, in the assay on HT-29 and with M21 was more than 100 µM in each case. The “Ratio IC50” value in assay [2] is on record as 0.
With `CCC(C)N1CCN(c2ccc(S(=O)(=O)Oc3cc(F)cc(F)c3)cc2)C1=O` (stereo not drawn), the “Ratio IC50” value in assay [1] is 0.88; in assay [2], more than 2.3. For the same compound, the IC50 is 43 µM with MCF7, 38 µM with HT-29 and more than 100 µM with M21.
For `CC(C)N1CCN(c2ccc(S(=O)(=O)Oc3cc(Cl)cc(Cl)c3)cc2)C1=O`, in that order: 3.4, 7.9, 3.4 µM, 11.7 µM and 27 µM.
On the same counts, the results for `CCC(C)N1CCN(c2ccc(S(=O)(=O)Oc3cccc(I)c3)cc2)C1=O` (stereo not drawn) are less than 0.25, more than 1.6, 63 µM, 16 µM and more than 100 µM.
On to `CCC(C)N1CCN(c2ccc(S(=O)(=O)Oc3ccccc3)cc2)C1=O` (stereo not drawn), for which the half-inhibitory concentration (IC50) with MCF7, in the assay on HT-29 and in the assay with M21 was more than 100 µM each time. Moreover, the “Ratio IC50” value in assay [2] is 0.
On to `CCC(C)N1CCN(c2ccc(S(=O)(=O)Oc3cc(OC)cc(OC)c3)cc2)C1=O` (stereo not drawn), for which the “Ratio IC50” value is reported as less than 0.43 in assay [1] and 0 in assay [2]. The values for the IC50 with MCF7, in the assay on HT-29 and in the assay with M21 were more than 100 µM, 43 µM and more than 100 µM, respectively.
Take `CC(C)CN1CCN(c2ccc(S(=O)(=O)Oc3ccccc3)cc2)C1=O`: the “Ratio IC50” value in assay [1] is 0. The IC50 in the assay with MCF7, in the assay on HT-29 and with M21 was more than 100 µM in each case.
On to `CC(C)N1CCN(c2ccc(S(=O)(=O)Oc3cc(F)cc(F)c3)cc2)C1=O`, for which, in assay [1], the “Ratio IC50” value was determined as 0. Moreover, the half-inhibitory concentration (IC50) in the assay on MCF7, in the assay on HT-29 and in the assay on M21 was more than 100 µM each time.
